pKd: −log10 of the molar value. Peptide text beside a SMILES is read from it.
What was measured:
Assay in all cases: Fluorescence polarization SH3 domain-PRP binding
Details in all cases: FP, 0.2 µM fluorescein-labeled peptide, SH3 domain 0-200 µM, Tris/HCl pH 7.5, 25 °C, quadratic fit
NPHP1 SH3 domain = target: T1, NPHP1 SH3 domain (Homo sapiens, UniProt O15259)
T1 construct: GST (N); made in house; host or cells: Escherichia coli CodonPlus, Rosetta, BL21(DE3)
T1 sequence (O15259 152-212 limits assumed): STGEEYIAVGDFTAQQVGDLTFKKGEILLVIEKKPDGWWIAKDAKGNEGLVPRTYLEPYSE
Method in brief: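 Kd values derive from fitting polarization titration curves to a quadratic ligand-binding equation. Constant 0.2 µM fluorescein-PRP was mixed with rising GST–SH3 domain levels up to 200 µM in Tris/HCl pH 7.5 buffer containing MgCl2 and DTT, at 25 °C.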

[1] = target: T2, BIN1 SH3 domain (aa 520-593) (Homo sapiens, UniProt O00499)
T2 construct: 520-593; GST (N); made in house; host or cells: Escherichia coli CodonPlus, Rosetta, BL21(DE3)
T2 sequence (O00499 520-593): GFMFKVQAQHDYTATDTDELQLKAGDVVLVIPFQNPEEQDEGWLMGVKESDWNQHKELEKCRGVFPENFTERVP
Experimental: (§1) The interaction between fluorescein-labeled proline-rich peptides (0.2 µM) and increasing concentrations of SH3 domains (ranging from 0 to 200 µM) was measured in a buffer (containing 30 mM Tris/HCl (pH 7.5), 5 mM MgCl2, and 3 mM DTT at 25 °C) in a total volume of 200 µL using a Fluoromax 4 fluorimeter in polarization mode and a quartz glass fluorescence cuvette (Hellma Ultra-Micro Cuvette 105.250-QS, Thermo Fisher Scientific, Waltham, MA USA). Excitation was performed at 470 nm and emission was measured at 560 nm. Dissociation constants (Kd) were determined by fitting the concentration-dependent binding curve to a quadratic ligand binding equation.
(§2) Fluorescence polarization measurements were performed to determine the binding affinities of SH3 domain–PRP interaction pairs from the dot blot analysis. SH3 proteins were titrated at increasing concentrations against fluorescent PRPs, which were kept at a constant concentration of 0.2 µM. GRB2-2^W193K, which is defective in the binding of PRPs such as RP1, was used as a negative control as previously described. […] The resulting data (Figure S6) allowed the evaluation of equilibrium dissociation constants (Kd) for 45 interactions between the SH3 domains and the PRPs (Figure 2B; Table S6).
(§3) Figure S6. Interactions of the SH3 domains with fluorescent PRPs measured by fluorescence polarization.
(§4) Fluorescent peptides (0.2 µM) were titrated with increasing concentrations of the corresponding SH3 domains.
(§5) GRB2-2W193K, defective in the binding of PRPs such as RP1, was used as a negative control as previously described. The x-axis represents SH3 domain concentrations as GST fusion proteins in µM, while the y-axis represents fluorescence polarization. The equilibrium dissociation constants (Kd) for the respective measurements were determined by fitting the titration curves to a quadratic ligand-binding equation (solid lines). All Kd values are […]
(§6) Error bars are derived from the fitting errors.
(§7) (1 picture or pasted object on this page, not shown here)

[2] = target: T3, ARHGEF30 (OBSCN) SH3 domain (aa 5600-5667) (Homo sapiens, UniProt Q5VST9)
T3 construct: 5600-5667; GST (N); made in house; host or cells: Escherichia coli CodonPlus, Rosetta, BL21(DE3)
T3 sequence (Q5VST9 5600-5667): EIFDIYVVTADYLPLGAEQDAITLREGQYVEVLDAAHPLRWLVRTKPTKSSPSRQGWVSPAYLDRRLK
Experimental: as §1, §2, §3, §4, §5, §6, §7

[3] = target: T4, ARHGAP12 SH3 domain (aa 12-74) (Homo sapiens, UniProt Q8IWW6)
T4 construct: 12-74; GST (N); made in house; host or cells: Escherichia coli CodonPlus, Rosetta, BL21(DE3)
T4 sequence (Q8IWW6 12-74): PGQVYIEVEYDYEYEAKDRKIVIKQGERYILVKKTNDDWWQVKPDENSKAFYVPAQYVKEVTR
Experimental: as §1, §2, §3, §4, §5, §6, §7

[4] = target: T5, ITSN1-1 SH3 domain (aa 740-806) (Homo sapiens, UniProt Q15811)
T5 construct: 740-806; GST (N); made in house; host or cells: Escherichia coli CodonPlus, Rosetta, BL21(DE3)
T5 sequence (Q15811 740-806): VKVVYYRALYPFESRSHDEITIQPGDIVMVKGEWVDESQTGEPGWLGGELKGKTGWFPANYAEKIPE
Experimental: as §1, §2, §3, §4, §5, §6, §7

[5] = target: T6, GRB2-2 SH3 domain (aa 158-215) (Homo sapiens, UniProt P62993)
T6 construct: 158-215; GST (N); made in house; host or cells: Escherichia coli CodonPlus, Rosetta, BL21(DE3)
Experimental: as §1, §2, §3, §4, §5, §6, §7

[6] = target: T7, ITSN1-3 SH3 domain (aa 1002-1060) (Homo sapiens, UniProt Q15811)
T7 construct: 1002-1060; GST (N); made in house; host or cells: Escherichia coli CodonPlus, Rosetta, BL21(DE3)
T7 sequence (Q15811 1002-1060): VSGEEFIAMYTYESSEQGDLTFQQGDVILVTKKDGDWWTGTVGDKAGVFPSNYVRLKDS
Experimental: as §1, §2, §3, §4, §5, §6, §7

[7] = target: T8, CRK-1 SH3 domain (aa 132-192) (Homo sapiens, UniProt P46108)
T8 construct: 132-192; GST (N); made in house; host or cells: Escherichia coli CodonPlus, Rosetta, BL21(DE3)
Experimental: as §1, §2, §3, §4, §5, §6, §7

[8] = target: T9, ITSN1-2 SH3 domain (aa 913-971) (Homo sapiens, UniProt Q15811)
T9 construct: 913-971; GST (N); made in house; host or cells: Escherichia coli CodonPlus, Rosetta, BL21(DE3)
T9 sequence (Q15811 913-971): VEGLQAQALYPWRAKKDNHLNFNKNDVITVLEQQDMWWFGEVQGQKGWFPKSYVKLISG
Experimental: as §1, §2, §3, §4, §5, §6, §7

[9] = target: T10, ABI1 SH3 domain (aa 446-505) (Homo sapiens, UniProt Q8IZP0)
T10 construct: 446-505; GST (N); made in house; host or cells: Escherichia coli CodonPlus, Rosetta, BL21(DE3)
Experimental: as §1, §2, §3, §4, §5, §6, §7

[10] = target: T11, GRB2-1 SH3 domain (aa 1-58) (Homo sapiens, UniProt P62993)
T11 construct: 1-58; GST (N); made in house; host or cells: Escherichia coli CodonPlus, Rosetta, BL21(DE3)
Experimental: as §1, §2, §3, §4, §5, §6, §7

[11] = target: T12, DLG2 SH3 domain (aa 536-606) (Homo sapiens, UniProt Q15700)
T12 construct: 536-606; GST (N); made in house; host or cells: Escherichia coli CodonPlus, Rosetta, BL21(DE3)
T12 sequence (Q15700 536-606): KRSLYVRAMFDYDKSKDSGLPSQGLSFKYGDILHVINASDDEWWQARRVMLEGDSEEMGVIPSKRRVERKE
Experimental: as §1, §2, §3, §4, §5, §6, §7

[12] = target: T13, ABL2 SH3 domain (aa 107-167) (Homo sapiens, UniProt P42684)
T13 construct: 107-167; GST (N); made in house; host or cells: Escherichia coli CodonPlus, Rosetta, BL21(DE3)
Experimental: as §1, §2, §3, §4, §5, §6, §7

T6 sequence (P62993 158-215): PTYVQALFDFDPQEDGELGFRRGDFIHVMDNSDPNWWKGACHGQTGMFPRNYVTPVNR
T8 sequence (P46108 132-192): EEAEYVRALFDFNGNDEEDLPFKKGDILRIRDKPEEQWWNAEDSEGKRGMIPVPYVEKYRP
T10 sequence (Q8IZP0 446-505): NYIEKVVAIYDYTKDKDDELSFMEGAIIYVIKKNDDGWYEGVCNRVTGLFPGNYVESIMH
T13 sequence (P42684 107-167): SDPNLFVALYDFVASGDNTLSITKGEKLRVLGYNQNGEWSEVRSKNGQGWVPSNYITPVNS
T11 sequence (P62993 1-58): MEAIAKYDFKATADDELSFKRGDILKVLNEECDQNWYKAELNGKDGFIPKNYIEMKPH

pKd (NPHP1 SH3 domain)	pKd [1]	pKd [2]	pKd [3]	pKd [4]	pKd [5]	pKd [6]	pKd [7]	pKd [8]	pKd [9]	pKd [10]	pKd [11]	pKd [12]	SMILES
< 3.70	< 3.70	< 3.70	4.78	4.41	5.47	< 3.70	< 3.70	< 3.70	< 3.70	4.96	< 3.70	4.96	CC(C)[C@H](N)C(=O)N1CCC[C@H]1C(=O)N[C@H](C(=O)N1CCC[C@H]1C(=O)N1CCC[C@H]1C(=O)N1CCC[C@H]1C(=O)N[C@H](C(=O)N1CCC[C@H]1C(=O)N1CCC[C@H]1C(=O)N[C@@H](CCCNC(=N)N)C(=O)N[C@@H](CCCNC(=N)N)C(=O)N[C@@H](CCCNC(=N)N)C(=O)O)C(C)C)C(C)C [RP1, reference compound]
< 3.70	4.32	< 3.70	4.81	4.96	4.89	< 3.70	< 3.70	< 3.70	< 3.70	4.70	< 3.70	< 3.70	CC(C)[C@H](NC(=O)[C@@H]1CCCN1C(=O)[C@@H]1CCCN1C(=O)[C@H](C)NC(=O)[C@H](CCC(=O)O)NC(=O)[C@H](CS)NC(=O)[C@@H](N)CCCNC(=N)N)C(=O)N1CCC[C@H]1C(=O)N1CCC[C@H]1C(=O)N[C@@H](CCCNC(=N)N)C(=O)N[C@@H](CCCNC(=N)N)C(=O)N[C@@H](CCC(=O)O)C(=O)N[C@@H](CCCNC(=N)N)C(=O)NCC(=O)O [RP2, reference compound] (H-RCEAPPVPPRRERG-OH)

— publication PMC10814857, “Functional Classification and Interaction Selectivity Landscape of the Human SH3 Domain Superfamily” (Cells, 2024)
